Experimental data from patent US7098204B2 (C.N.R.S., priority 1999, dated 2006).

What was measured:
HT29-18-C1 cells = test: Flow cytometric cell cycle analysis, HT29-18-C1; type: cell-based, human
Description: Cell culture and treatments. HT29-18-C1, a subclone of the human colon adenocarcinoma cell line HT29, was cultured in Dulbecco's modified Eagle's medium (Gibco-BRL) supplemented with 10% FCS, 2 mM L-glutamine (Eurobio) and […] gentamycin (Gibco-BRL) at 37° C., 10% CO2. Cells were synchronized by serum deprivation for 48 h. They were then released from growth arrest by the addition of 5% fetal calf serum (FCS). HD, prepared in DMSO, was added immediately to the medium, for 24 h and at final concentrations ranging from 0 to 80 μM. In some experiments HD was added 22 h after serum addition for an additional 24 h. In other experiments HD was added to unsynchronised cells. Cells were then washed and cultured in 5% FCS medium and counted or analysed by FACS at different times.
Cell counts and flow cytometric cell cycle analysis. Cell were counted with a hemocytometer. Cell cycle distribution was analysed by flow cytometry. […] The stained cells were analysed on a FACScan cytofluorimeter using the cellFit Software program (Becton Dickinson Immunocytometry Systems).
The results concerning the cell cycle distribution of HD-treated cells are given on FIG. 10A. […] Cells were then fixed and their cell cycle phase status was determined by FACscan analysis as described in the Experimental Procedures section. […] Cell cycle distribution was analysed every 24 h for a 72 h period. […]

CDK5/p35 = CDK5/p35 (Rattus norvegicus, UniProt Q03114); test: In vivo Pak1 phosphorylation in cultured E18 cortical neurones; type: cell-based; set-up: endogenous in cells; host or cells: primary cortical neurones from E18 rat embryos; settings: 1 hour exposure
Description: HD was added onto cultured neurones obtained from E18 rat embryo cortices when the cultures were 4 days old. As a control DMSO was used to the maximal volume of drug used (7.5 μl). The drug was left on the cells for 1 hour. The cells were then lysed on ice in STM buffer and the membrane fraction isolated with STM containing 0.5% NP-40 [17].
Pak1 immunoprecipitations were carried out using a specific polyclonal antibody, followed by kinase assays using histone H4 as a a substrate. The amount of H4 phosphorylation, reflecting the level of Pak1 activity, was determined by measuring the intensity of the bands on autoradiography film and quantitating with NIH imaging program.
As loading controls Pak1 and p35 western blots were made. The latter protein increases in amount with the level of CDK5/p35 kinase inhibition.

CDK1/cyclin B = CDK1/cyclin B kinase assay (histone H1); type: biochemical, starfish (Marthasterias glacialis)
Description: Kinases activities were assayed in Buffer A or C (unless otherwise stated), at 30° C., at a final ATP concentration of 15 μM. Blank values were subtracted and activities calculated as pmoles of phosphate incorporated for a 10 min. incubation (usually expressed in % of the maximal activity, i.e. without inhibitors). Controls were performed with appropriate dilutions of Me2SO. In some cases phosphorylation of the substrate was assessed by autoradiography after SDS-PAGE. IC50 values were estimated from the dose-response curves. • CDK1/cyclin B was extracted in homogenisation buffer from M phase starfish (Marthasterias glacialis) oocytes and purified by affinity chromatography on p9^CKShs1-Sepharose beads, from which it was eluted by free p9^CKShs1 as described. The kinase activity was assayed in buffer C, with 1 mg histone H1/ml, in the presence of 15 μM [γ-^32P] ATP (3,000 Ci/mmol; 1 mCi/ml) in a final volume of 30 μl. After 10 min. incubation at 30° C., 25 μl aliquots of supernatant were spotted onto 2.5×3 cm pieces of Whatman P81 phosphocellulose paper, and, 20 sec. later, the filters were washed five times (for at least 5 min. each time) in a solution of 10 ml phosphoric acid/liter of water. The wet filters were counted in the presence of 1 ml ACS (Amersham) scintillation fluid. • GSK-3β was either purified from rabbit muscle or expressed in and purified from insect Sf9 cells. It was assayed, following a 1/100 dilution in 1 mg BSA/ml 10 mM DTT, with 5 μl 40 μM GS-1 peptide as a substrate, in buffer A, in the presence of 15 μM [γ-^32P] ATP (3,000 Ci/mmol; 1 mCi/ml) in a final volume of 30 μl. […] Its activity was assayed in buffer C as described for CDK1/cyclin B. • CDK2/cyclin A, CDK2/cyclin E, CDK3/cyclin E, CDK4/cyclin D1, CDK6/cyclin D2, His-tagged erk1 and erk2, protein kinase C isoforms, the catalytic subunit of cAMP-dependent protein kinase, cGMP-dependent protein kinase, Myosin light chain kinase, casein kinases 1 & 2, ASK-γ (a plant homologue of GSK-3), insulin receptor tyrosine kinase domain (CIRK-41), c-raf, MAPKK, c-jun N terminal kinase (obtained from Promega), c-src kinase and v-abl kinase were assayed as described. Electrophoresis and Western Blotting

protein kinase C δ = protein kinase C δ (Homo sapiens, UniProt Q05655); test: protein kinase C δ assay; type: biochemical; settings: 15 μM ATP
Description: Kinases activities were assayed in Buffer A or C (unless otherwise stated), at 30° C., at a final ATP concentration of 15 μM. Blank values were subtracted and activities calculated as pmoles of phosphate incorporated for a 10 min. incubation (usually expressed in % of the maximal activity, i.e. without inhibitors). Controls were performed with appropriate dilutions of Me2SO. In some cases phosphorylation of the substrate was assessed by autoradiography after SDS-PAGE. IC50 values were estimated from the dose-response curves. • CDK1/cyclin B was extracted in homogenisation buffer from M phase starfish (Marthasterias glacialis) oocytes and purified by affinity chromatography on p9^CKShs1-Sepharose beads, from which it was eluted by free p9^CKShs1 as described. The kinase activity was assayed in buffer C, with 1 mg histone H1/ml, in the presence of 15 μM [γ-^32P] ATP (3,000 Ci/mmol; 1 mCi/ml) in a final volume of 30 μl. After 10 min. incubation at 30° C., 25 μl aliquots of supernatant were spotted onto 2.5×3 cm pieces of Whatman P81 phosphocellulose paper, and, 20 sec. later, the filters were washed five times (for at least 5 min. each time) in a solution of 10 ml phosphoric acid/liter of water. The wet filters were counted in the presence of 1 ml ACS (Amersham) scintillation fluid. • GSK-3β was either purified from rabbit muscle or expressed in and purified from insect Sf9 cells. […]

Sequence of CDK5/p35 (Q03114 whole entry): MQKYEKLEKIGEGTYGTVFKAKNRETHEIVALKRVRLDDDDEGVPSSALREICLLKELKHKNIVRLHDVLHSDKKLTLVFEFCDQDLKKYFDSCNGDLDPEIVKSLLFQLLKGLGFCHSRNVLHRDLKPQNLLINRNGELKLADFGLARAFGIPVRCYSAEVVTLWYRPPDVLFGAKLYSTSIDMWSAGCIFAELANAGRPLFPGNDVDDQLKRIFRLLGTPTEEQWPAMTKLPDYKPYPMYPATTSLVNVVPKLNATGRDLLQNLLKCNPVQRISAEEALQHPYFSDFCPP
Sequence of CDK5/p35 (P61810 2-307 partner limits assumed): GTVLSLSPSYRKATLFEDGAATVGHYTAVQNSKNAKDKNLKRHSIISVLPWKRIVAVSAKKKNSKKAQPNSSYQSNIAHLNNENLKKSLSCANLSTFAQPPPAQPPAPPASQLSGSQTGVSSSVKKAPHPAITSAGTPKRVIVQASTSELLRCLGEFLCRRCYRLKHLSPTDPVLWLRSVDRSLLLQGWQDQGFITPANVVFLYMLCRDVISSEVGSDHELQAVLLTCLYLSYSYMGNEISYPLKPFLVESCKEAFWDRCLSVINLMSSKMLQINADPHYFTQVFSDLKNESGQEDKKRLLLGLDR
Sequence of protein kinase C δ (Q05655 whole entry): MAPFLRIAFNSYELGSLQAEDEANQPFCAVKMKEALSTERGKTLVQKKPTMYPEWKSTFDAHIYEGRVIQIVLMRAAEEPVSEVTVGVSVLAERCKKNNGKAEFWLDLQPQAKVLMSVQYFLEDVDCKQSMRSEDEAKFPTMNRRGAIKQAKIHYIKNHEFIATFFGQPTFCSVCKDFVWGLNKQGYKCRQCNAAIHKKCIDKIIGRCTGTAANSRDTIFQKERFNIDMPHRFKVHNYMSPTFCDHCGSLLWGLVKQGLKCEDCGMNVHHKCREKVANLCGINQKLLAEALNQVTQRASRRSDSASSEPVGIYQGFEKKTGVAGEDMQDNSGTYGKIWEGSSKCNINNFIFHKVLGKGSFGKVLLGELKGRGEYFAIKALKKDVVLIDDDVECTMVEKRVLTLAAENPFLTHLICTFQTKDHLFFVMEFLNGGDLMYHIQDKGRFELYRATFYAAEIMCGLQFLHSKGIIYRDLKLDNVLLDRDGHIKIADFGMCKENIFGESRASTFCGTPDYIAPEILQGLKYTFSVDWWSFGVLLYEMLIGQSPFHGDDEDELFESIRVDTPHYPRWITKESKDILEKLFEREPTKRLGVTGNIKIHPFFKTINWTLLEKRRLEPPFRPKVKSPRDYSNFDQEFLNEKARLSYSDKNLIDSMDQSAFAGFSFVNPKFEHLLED

NC1=NC(=O)C(=C2CCNC(=O)c3[nH]c(Br)cc32)N1 [hymenialdisine, 4-(2-amino-4-oxo-2-imidazolin-5-ylidene)-2-bromo-4,5,6,7-tetrahydropyrrolo (2,3-c) azepine-8-one]
cell cycle distribution (HT29-18-C1 cells; 10 μM HD added 22 hr after serum, analysed 14 h later): accumulation of cells in G2/M | cell cycle distribution (HT29-18-C1 cells; HD added with serum at time 0, 24 h): accumulation of cells in S phase | Pak1 activity (H4 phosphorylation) in neurons (CDK5/p35): increase in Pak1 activity | IC50 (CDK1/cyclin B): 0.022 µM | IC50 (protein kinase C δ): 1.1 µM
